Measurements reported in ChEMBL document CHEMBL4325884, “Investigation of the molecular characteristics of bisindole inhibitors as HIV-1 glycoprotein-41 fusion inhibitors” (Eur J Med Chem, 2019).
pIC50, pKi: −log10 of the molar value.

Key:
[1] = tested on: Human immunodeficiency virus 1; assay: Antiviral activity against HIV-1 3B infected in human MAGI-CXCR4 cells assessed as reduction in viral infection after 48 hrs by fluorescence based beta-galactosidase reporter gene assay; format: functional, organism-based; details: Human immunodeficiency virus 1, 3B
[2] = Cytotoxicity against human PBMC by MTS or resazurin dye based assay; format: cell-based
[3] = molecular target: Envelope glycoprotein gp160 (Human immunodeficiency virus 1, UniProt Q6QLK5); assay: Binding affinity to HIV1 N-terminal 2,2-bipyridine-5-carboxylate-capped Envelope glycoprotein gp41 Fe2(env2.0)3 by C18FL probe based fluorescence quenching assay
[4] = tested on: Human immunodeficiency virus 1; assay: Antiviral activity against HIV-1 Bal infected in human MAGI-CCR5 cells assessed as reduction in viral infection after 48 hrs by fluorescence based beta-galactosidase reporter gene assay; format: functional, organism-based; details: Human immunodeficiency virus 1, Bal, MAGI-CCR5, 48 h
[5] = Cytotoxicity against human MAGI cells by MTS or resazurin dye based assay; format: cell-based

Chain of Envelope glycoprotein gp160 (Q6QLK5 whole entry): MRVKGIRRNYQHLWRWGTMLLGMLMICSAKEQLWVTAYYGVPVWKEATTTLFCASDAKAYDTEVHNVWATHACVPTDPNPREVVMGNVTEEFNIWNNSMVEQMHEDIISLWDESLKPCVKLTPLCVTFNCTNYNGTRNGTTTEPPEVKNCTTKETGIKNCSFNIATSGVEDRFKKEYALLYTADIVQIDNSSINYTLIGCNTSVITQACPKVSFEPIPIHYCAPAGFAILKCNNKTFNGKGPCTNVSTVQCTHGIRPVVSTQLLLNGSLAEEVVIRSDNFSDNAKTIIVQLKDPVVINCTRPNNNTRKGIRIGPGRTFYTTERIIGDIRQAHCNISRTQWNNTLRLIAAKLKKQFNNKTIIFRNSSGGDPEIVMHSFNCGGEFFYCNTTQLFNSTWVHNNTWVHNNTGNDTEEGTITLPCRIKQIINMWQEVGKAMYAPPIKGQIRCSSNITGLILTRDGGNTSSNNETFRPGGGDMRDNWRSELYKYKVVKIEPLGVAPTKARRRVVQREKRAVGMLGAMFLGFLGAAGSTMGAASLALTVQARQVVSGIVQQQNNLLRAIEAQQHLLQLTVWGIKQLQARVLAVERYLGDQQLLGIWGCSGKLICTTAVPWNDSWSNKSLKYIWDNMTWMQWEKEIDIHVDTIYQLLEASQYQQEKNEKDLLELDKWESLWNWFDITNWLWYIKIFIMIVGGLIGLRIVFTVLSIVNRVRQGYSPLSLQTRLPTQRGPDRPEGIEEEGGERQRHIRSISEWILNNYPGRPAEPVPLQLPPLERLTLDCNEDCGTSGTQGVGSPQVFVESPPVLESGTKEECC

Structure (SMILES) | pIC50 [1] | CC50 [2] [µM] | pKi [3] | pIC50 [4] | CC50 [5] [µM]
COc1cccc(CNc2cccc(-c3ccc4ccn(Cc5cccc(C(=O)O)c5)c4c3)c2)c1 | < 4.70 | > 10 | 5.82 | < 4.70 | 
CC(C)(C)OC(=O)n1ccc2ccc(-c3ccc4ccn(Cc5cccc(C(=O)O)c5)c4c3)cc21 | 6.00 | > 20 | 5.72 | 6.05 | 
Cn1ccc2ccc(-c3ccc4cnn(Cc5cc(F)cc(C(=O)O)c5)c4c3)cc21 | < 4.70 | > 20 | 5.68 | < 4.70 | 
CC(C)(C)OC(=O)Nc1cccc(Cn2ccc3ccc(-c4ccc5ccn(Cc6cccc(C(=O)O)c6)c5c4)cc32)c1 | 6.30 | > 20 | 5.82 | 6.40 | 
Cc1ccc(S(=O)(=O)n2ccc3ccc(-c4ccc5ccn(Cc6cccc(C(=O)O)c6)c5c4)cc32)cc1 | 6.05 | > 50 | 5.92 | 6.10 | 
COC(=O)c1cccc(Cn2ccc3ccc(-c4ccc5cnn(Cc6cccc(C(=O)O)c6)c5c4)cc32)c1 | 5.60 | > 20 | 5.49 | 5.51 | 
CC(C)(C)OC(=O)N1CCC(Cn2ccc3ccc(-c4ccc5ccn(Cc6cccc(C(=O)O)c6)c5c4)cc32)CC1 | 6.22 | > 20 | 5.92 | 6.22 | 
Cn1cc2ccc(-c3ccc4ccn(Cc5cc(F)cc(C(=O)O)c5)c4c3)cc2n1 | < 4.70 | > 20 | 5.19 | 4.85 | 
CN(C(=O)OC(C)(C)C)c1cccc(-c2ccc3ccn(Cc4cccc(C(=O)O)c4)c3c2)c1 | 4.95 | > 20 | 5.80 | 4.81 | 
COc1cccc(CN(C(=O)OC(C)(C)C)c2cccc(-c3ccc4ccn(Cc5cccc(C(=O)O)c5)c4c3)c2)c1 | 5.38 | > 10 | 6.35 | 5.26 | 
Nc1ccc(Cn2ccc3ccc(-c4ccc5ccn(Cc6cccc(C(=O)O)c6)c5c4)cc32)cc1 | 5.89 | > 20 | 5.51 | 5.96 | 
COc1cccc(CN(C)c2cccc(-c3ccc4ccn(Cc5cccc(C(=O)O)c5)c4c3)c2)c1 | 5.92 | > 20 | 6.10 | 5.80 | 
O=C(O)c1cccc(Cn2ccc3ccc(-c4ccc5ccn(Cc6cccc(OC(F)(F)F)c6)c5c4)cc32)c1 | 5.82 | > 20 | 5.64 | 5.85 | 
COc1cc(Cn2ccc3ccc(-c4ccc5ccn(Cc6cccc(C(=O)O)c6)c5c4)cc32)cc(C(=O)O)c1 | < 4.70 | > 20 | 6.10 | < 4.70 | 
CC(C)(C)OC(=O)N1CCc2ccc(-c3ccc4ccn(Cc5cccc(C(=O)O)c5)c4c3)cc21 | 5.55 | > 25 | 6.05 | 5.64 | 
CC(C)(C)OC(=O)c1cccc(Cn2ccc3ccc(-c4ccc5ccn(Cc6cccc(C(=O)O)c6)c5c4)cc32)c1 | 6.70 | > 10 | 6.52 | 6.70 | 
Cn1ccc2cc(F)c(-c3ccc4ccn(Cc5cc(F)cc(C(=O)O)c5)c4c3)cc21 | 5.11 | > 20 | 5.70 | 5.01 | 

Structure (SMILES) | pIC50 [1] | CC50 [2] [µM] | pKi [3] | pIC50 [4] | CC50 [5] [µM]
Cn1ccc2ccc(-c3ccc4c(c3)N(Cc3cccc(C(=O)O)c3)CC4)cc21 | < 4.60 | > 50 | 5.00 | < 4.60 | 
COC(=O)c1cc(Cn2ccc3ccc(-c4ccc5ccn(Cc6cccc(C(=O)O)c6)c5c4)cc32)cc(C(=O)OC)c1 | 6.22 | > 20 | 6.00 | 6.22 | 
COC(=O)c1cccc(Cn2ncc3ccc(-c4ccc5ccn(Cc6cccc(C(=O)O)c6)c5c4)cc32)c1 | 5.85 | > 50 | 6.00 | 5.85 | 
COc1cccc(CN2CCc3ccc(-c4ccc5ccn(Cc6cccc(C(=O)O)c6)c5c4)cc32)c1 | 5.62 | > 25 | 5.44 | 5.72 | 
COC(=O)c1cccc(Cn2ccc3cc(F)c(-c4ccc5ccn(Cc6cccc(C(=O)O)c6)c5c4)cc32)c1 | 6.40 | > 20 | 6.15 | 6.30 | 
COC(=O)c1ccc(Cn2ccc3ccc(-c4ccc5ccn(Cc6cccc(C(=O)O)c6)c5c4)cc32)c(OC)c1 | 5.51 | 25 | 6.40 | 5.38 | 25
Cn1ncc2ccc(-c3ccc4cnn(Cc5ccc(F)c(C(=O)O)c5)c4c3)cc21 | < 4.70 | 200 | 4.72 | < 4.70 | 200
COc1cccc(Cn2ccc3ccc(-c4ccc5c(C)cn(Cc6cccc(C(=O)O)c6)c5c4)cc32)c1 | 4.89 | 70 | 5.92 | 4.98 | 70
COC(=O)c1cc(F)cc(Cn2ccc3ccc(-c4ccc5ccn(Cc6cccc(C(=O)O)c6)c5c4)cc32)c1 | 6.30 | > 20 | 6.00 | 6.40 | 
Cn1ncc2ccc(-c3ccc4ccn(Cc5cc(F)cc(C(=O)O)c5)c4c3)cc21 | 4.95 | > 20 | 5.60 | 5.00 | 
O=C(O)c1cccc(Cn2ccc3ccc(-c4ccc5ccn(Cc6cccc([N+](=O)[O-])c6)c5c4)cc32)c1 | 5.47 | > 20 | 5.57 | 5.55 | 
Cn1ccc2ccc(-c3ccc4ccn(Cc5cc(F)cc(C(=O)O)c5)c4c3)cc21 | 5.04 | > 20 | 5.52 | 5.09 | 
CC(=O)Nc1cccc(Cn2ccc3ccc(-c4ccc5ccn(Cc6cccc(C(=O)O)c6)c5c4)cc32)c1 | 5.35 | > 20 | 6.05 | 5.33 | 
COc1cccc(Cn2ccc3ccc(-c4ccc5cn(Cc6cccc(C(=O)O)c6)nc5c4)cc32)c1 | 5.26 | > 20 | 6.00 | 5.24 | 
COc1cccc(Cn2ccc3cc(F)c(-c4ccc5ccn(Cc6cccc(C(=O)O)c6)c5c4)cc32)c1 | 5.15 | > 20 | 5.30 | 5.03 | 
Cc1cn(C(=O)OC(C)(C)C)c2cc(-c3ccc4ccn(Cc5cccc(C(=O)O)c5)c4c3)ccc12 | 5.77 | > 20 | 5.33 | 5.92 | 
